Assay: physchem
Format: physicochemical

solubility (aqueous buffer): ~70 µg/mL | solubility (water): ~17400 µg/mL
Compound: C[C@H]1NCc2cc(-c3ccc4c(=O)c(C(=O)O)cn(C5CC5)c4c3OC(F)F)ccc21 [des-quinolone, 1-Cyclopropyl-8-(difluoromethoxy)-7-[(1R)-1-methyl-2,3-dihydro-1H-5-isoindolyl]-4-oxo-1,4-dihydro-3-quinolinecarboxylic acid methanesulfonate monohydrate]
